According to BindingDB's records for doi:10.1021/jm801416q (Pharmacopeia, 2010):

Assay: Antagonist activity at human CCR1 in THP1 cells assessed as inhibition of MIP-1-alpha-induced chemotaxis after 3 hrs

IC50	Compound
440 nM	COc1ccc(NC(=O)N2CCC[C@@H]2C(=O)N(C)Cc2ccc(Cl)cc2)cc1 [(R)-N2-(4-Chlorobenzyl)-N1-(4-methoxyphenyl)-N2-methylpyrrolidine-1,2-dicarboxamide]
6 nM	Cc1cc(C(F)(F)F)cc(C)c1NC(=O)N1CCC[C@@H]1C(=O)N(C)Cc1ccc(Cl)cc1 [(R)-N2-(4-Chlorobenzyl)-N1-[2,6-dimethyl-4-(trifluoromethyl)phenyl]-N2-methylpyrrolidine-1,2-dicarboxamide]
35 nM	CN(Cc1ccc(Cl)cc1)C(=O)[C@H]1CCCN1C(=O)Nc1ccc(C(F)(F)F)cc1Cl [(R)-N2-(4-Chlorobenzyl)-N1-[2-chloro-4-(trifluoromethyl)phenyl]-N2-methylpyrrolidine-1,2-dicarboxamide]
16 nM	Cc1cc(C(F)(F)F)ccc1NC(=O)N1CCC[C@@H]1C(=O)N(C)Cc1ccc(Cl)cc1 [(R)-N2-(4-Chlorobenzyl)-N2-methyl-N1-[2-methyl-4-(trifluoromethyl)phenyl]pyrrolidine-1,2-dicarboxamide]
